We go through 39 compounds from patent publication US9815791B2, “Alkylpyrazolyl guanidine F1F0-ATPase inhibitors and therapeutic uses thereof” (Lycera Corporation, priority 2013, dated 2017).

The term EC50 denotes the concentration that produces a half-maximal response. What is called Cmax is the maximum level reached in the sampled fluid or tissue.

A value given as a limit tells only on which side of the number the result lay.

One data set relates to Ramos cells. The data set can be described thus: Cytotoxicity in Ramos cells. Type of data set: cell-based. Particulars: Homo sapiens, read-out: Ramos Cell EC50. As to the method:
Exemplary compounds described in above Examples were tested for activity against F1F0-ATPase by measuring the ability of the compounds to inhibit ATP synthesis. In addition, the compounds were assessed for cytotoxicity in Ramos cells. Inhibition of F1F0-ATPase activity in synthesizing ATP and cytotoxicity in Ramos cells were measured according to the procedures described in K. M. Johnson et al. Chemistry & Biology 2005, 12, 485-496.

Data set [1] is described as follows: Blood plasma levels after oral administration to mice. Type of data set: in vivo. Particulars: mouse, 10 mg/kg, 5 mL/Kg of 2 mg/mL lipid emulsion. As to the method: (§1) Exemplary compounds were administered orally to animals (i.e., mice or rats), and then blood samples were taken from the animal at set time points and analyzed for the amount of test compound in the blood sample. Experimental procedures and results are described below.
(§2) A lipid emulsion containing the test compound was prepared by first dissolving the test compound in 1:4 Labrafil M1944:Solutol, then adding 0.5% carboxymethylcellulose in water with vigorous stirring to achieve a final ratio of 5:20:75 Labrafil:Solutol:0.5% aqueous CMC. The concentration of test compound in the lipid emulsion was 2 mg/mL.
(§3) Animals (mice or rats) were dosed by oral gavage using 5 mL/Kg of dosing solution. Animals were serially bled from the dorsal metatarsal vein (mice) or jugular vein (rats) at 30 minutes, 1 h, 2 h, 4 h, 8 h and 24 h post-dose. Test compounds 1 and B-1 were administered to a mice. Test compounds A-1 and B-2 were administered to rats.
(§4) The desired serial concentrations of working solutions were achieved by diluting a stock solution of analyte with 60% acetonitrile in water solution. A 5 μL aliquot of working solutions at 10, 20, 50, 100, 500, 1000, 5000, and 10000 ng/mL were added to 50 μL of blank plasma to achieve calibration standards of 1-1000 ng/mL (1, 2, 5, 10, 50, 100, 500, 1000 ng/mL) in a total volume of 55 μL.
(§5) Four quality control samples at 3 ng/mL (low 1), 5 ng/mL (low 2), 50 ng/mL (medium), and 800 ng/mL (high) were prepared independently of those used for the calibration curves. These QC samples were prepared on the day of analysis in the same way as calibration standards.
(§6) 55 μL standards, 55 μL QC samples, and 55 μL unknown samples were added to 200 μL of acetonitrile for precipitating protein respectively. Then, the samples were vortexed for 30 seconds at 4 degree Celsius. After centrifugation at 4 degree Celsius (i.e., 15000 rpm for 5 min) a 20 μL aliquot of the supernatant was analyzed by LC/MS. Unknowns were compared to standards to obtain test compound concentrations for each sample.

The nature of data set [2]: Blood plasma levels after oral administration to rats. Type of data set: in vivo. The following applies: rat, 10 mg/kg, 5 mL/Kg of 2 mg/mL lipid emulsion; for AUC(0-t): heading: AUC0-24, oral gavage; for Cmax: oral gavage. The procedure:
as §1, §2, §3, §4, §5, §6

Regarding `Cc1c(N/C(=N\C(=O)c2ccc(F)c(F)c2)Nc2cc(F)cc(Cl)c2)n[nH]c1C(F)(F)F` [Compound 1, N-(((3-Chloro-5-fluorophenyl)amino)((4-methyl-5-(trifluoromethyl)-1H-pyrazol-3-yl)amino)methylene)-3,4-difluorobenzamide], in the data set with Ramos cells, the EC50 was < 10 µM. Moreover, the highest level in data set [1] (oral gavage) (Cmax) was 1590 ng/mL. The AUC(0-t) in data set [1] (oral gavage, read-out: AUC0-24) was found to be 8760 ng·h/mL. For the compound `Cc1c(N/C(=N\C(=O)c2cccc(Cl)c2)Nc2cc(F)cc(Cl)c2)n[nH]c1C(F)(F)F` [Compound A-1], in data set [2], the AUC(0-t) amounted to 10500 ng·h/mL and the Cmax amounted to 1440 ng/mL. The EC50 in the data set with Ramos cells was < 10 µM.

Turning to `COc1ccc(C(=O)N=C(Nc2cc(F)cc(Cl)c2)Nc2n[nH]c(C(F)(F)F)c2C)cc1` [Compound A-2], in the data set on Ramos cells, the 50% effective concentration (EC50) is < 10 µM. In the case of `Cc1c(NC(=NC(=O)c2cccc(Cl)c2)Nc2cccc(Cl)c2)n[nH]c1C(F)(F)F` [Compound A-7], the EC50 with Ramos cells is < 10 µM. Same read-out and setting: the figure for `Cc1c(NC(=NC(=O)c2ccc(Cl)cc2Cl)Nc2cccc(C(F)(F)F)c2)n[nH]c1C(F)(F)F` [Compound A-8] is < 10 µM; for `Cc1c(NC(=NC(=O)c2ccc(Cl)cc2Cl)Nc2cccc(Cl)c2)n[nH]c1C(F)(F)F` [Compound A-9] it is < 10 µM. The same measure, in the same setting: the figure for `COc1ccc(C(=O)N=C(Nc2cccc(Cl)c2)Nc2n[nH]c(C(F)(F)F)c2C)cc1` [Compound A-10] is < 10 µM.

In the case of `Cc1c(C(F)(F)F)n[nH]c1NC(=NC(=O)c1ccc(Cl)cc1Cl)Nc1cc(F)cc(Cl)c1` [Compound A-11], the EC50 in the data set on Ramos cells is < 10 µM. The same measure, in the same setting: the figure for `CCn1nc(C(F)(F)F)c(C)c1N/C(=N\C(=O)c1ccc(Cl)cc1Cl)Nc1cc(F)cc(Cl)c1` [Compound A-12] is < 10 µM; for `CCn1nc(C(F)(F)F)c(C)c1N/C(=N\C(=O)c1ccc(Cl)cc1Cl)Nc1cccc(C(F)(F)F)c1` [Compound A-13] it is < 10 µM.

As to `CCn1nc(C(F)(F)F)c(C)c1N/C(=N\C(=O)c1ccc(OC)cc1)Nc1cc(F)cc(Cl)c1` [Compound A-14], the EC50 with Ramos cells is < 10 µM. For `CCn1nc(C(F)(F)F)c(C)c1N/C(=N\C(=O)c1ccc(OC)cc1)Nc1cccc(C(F)(F)F)c1` [Compound A-15], the 50% effective concentration (EC50) in the data set with Ramos cells is < 10 µM. On the same count and under the same terms, the figure for `CCn1nc(C(F)(F)F)c(C)c1N/C(=N\C(=O)c1ccc(OC)cc1)Nc1cccc(Cl)c1` [Compound A-16] is < 10 µM; for `CCn1nc(C(F)(F)F)c(C)c1N/C(=N\C(=O)c1cccc(Cl)c1)Nc1cc(F)cc(Cl)c1` [Compound A-17] it is < 10 µM; for `CCn1nc(C(F)(F)F)c(C)c1N/C(=N\C(=O)c1cccc(Cl)c1)Nc1cccc(C(F)(F)F)c1` [Compound A-18] it is < 10 µM. Consider `CCn1nc(C(F)(F)F)c(C)c1N/C(=N\C(=O)c1cccc(Cl)c1)Nc1cccc(Cl)c1` [Compound A-19], for which, in the data set with Ramos cells, the EC50 was < 10 µM. For `CCn1nc(C(F)(F)F)c(C)c1N/C(=N\C(=O)c1ccc(F)c(F)c1)Nc1cc(F)cc(Cl)c1` [Compound A-20], the EC50 in the data set with Ramos cells was < 10 µM. On to `CCn1nc(C(F)(F)F)c(C)c1N/C(=N\C(=O)c1ccc(F)c(F)c1)Nc1cccc(C(F)(F)F)c1` [Compound A-21], for which the EC50 in the data set on Ramos cells was < 10 µM. On the same count and under the same terms, the figure for `CCn1nc(C(F)(F)F)c(C)c1N/C(=N\C(=O)c1ccc(F)c(F)c1)Nc1cccc(Cl)c1` [Compound A-22] is < 10 µM; for `CCn1nc(C(F)(F)F)c(C)c1N/C(=N\C(=O)c1ccc(Cl)cc1Cl)Nc1cccc(Cl)c1` [Compound A-23] it is < 10 µM; for `CCn1nc(C(F)(F)F)c(C)c1N/C(=N\C(=O)c1ccc(Cl)cc1)Nc1cc(F)cc(Cl)c1` [Compound A-24] it is < 10 µM. On the same count and under the same terms, the figure for `CCn1nc(C(F)(F)F)c(C)c1N/C(=N\C(=O)c1ccc(Cl)cc1)Nc1cccc(C(F)(F)F)c1` [Compound A-25] is < 10 µM. In the case of `CCn1nc(C(F)(F)F)c(C)c1N/C(=N\C(=O)c1ccc(Cl)cc1)Nc1cccc(Cl)c1` [Compound A-26], in the data set with Ramos cells, the EC50 is < 10 µM. On the same count and under the same terms, the figure for `CCn1nc(C(F)(F)F)c(C)c1N/C(=N\C(=O)c1ccc(Cl)c(F)c1)Nc1cc(F)cc(Cl)c1` [Compound A-27] is < 10 µM; for `CCn1nc(C(F)(F)F)c(C)c1N/C(=N\C(=O)c1ccc(Cl)c(F)c1)Nc1cccc(C(F)(F)F)c1` [Compound A-28] it is < 10 µM. The same measure, in the same setting: the figure for `CCn1nc(C(F)(F)F)c(C)c1N/C(=N\C(=O)c1ccc(Cl)c(F)c1)Nc1cccc(Cl)c1` [Compound A-29] is < 10 µM. The same measure, in the same setting: the figure for `Cc1c(C(F)(F)F)n[nH]c1NC(=NC(=O)c1ccc(F)c(F)c1)Nc1ccc(Cl)cc1Cl` [Compound A-30] is < 10 µM; for `Cc1ccc(N/C(=N/C(=O)c2ccc(F)c(F)c2)Nc2[nH]nc(C(F)(F)F)c2C)c(Cl)c1` [Compound A-31] it is < 10 µM; for `Cc1c(NC(=NC(=O)c2ccc(Cl)cc2Cl)Nc2ccc(Cl)cc2Cl)n[nH]c1C(F)(F)F` [Compound A-32] it is < 10 µM.

For the compound `Cc1ccc(NC(=NC(=O)c2ccc(Cl)cc2Cl)Nc2n[nH]c(C(F)(F)F)c2C)c(Cl)c1` [Compound A-33], the EC50 in the data set with Ramos cells is < 10 µM. On the same count and under the same terms, the figure for `Cc1ccc(NC(=NC(=O)c2cccc(Cl)c2)Nc2n[nH]c(C(F)(F)F)c2C)c(Cl)c1` [Compound A-35] is < 10 µM; for `Cc1c(NC(=NC(=O)c2ccc(Cl)cc2)Nc2cc(F)cc(Cl)c2)n[nH]c1C(F)(F)F` [Compound A-36] it is < 10 µM; for `Cc1c(NC(=NC(=O)c2ccc(Cl)cc2)Nc2cccc(C(F)(F)F)c2)n[nH]c1C(F)(F)F` [Compound A-37] it is < 10 µM. For the compound `Cc1c(NC(=NC(=O)c2ccc(Cl)cc2)Nc2cccc(Cl)c2)n[nH]c1C(F)(F)F` [Compound A-38], in the data set with Ramos cells, the EC50 was < 10 µM. Still for that read-out and setting: the figure for `Cc1c(NC(=NC(=O)c2ccc(Cl)c(F)c2)Nc2cc(F)cc(Cl)c2)n[nH]c1C(F)(F)F` [Compound A-39] is < 10 µM. The same measure, in the same setting: the figure for `Cc1c(NC(=NC(=O)c2ccc(Cl)c(F)c2)Nc2cccc(Cl)c2)n[nH]c1C(F)(F)F` [Compound A-41] is < 10 µM. The same measure, in the same setting: the figure for `Cc1c(NC(=NC(=O)c2ccc(C(F)(F)F)cc2)Nc2cccc(Cl)c2)n[nH]c1C(F)(F)F` [Compound A-42] is < 10 µM. `O=C(/N=C(/Nc1cc(F)cc(Cl)c1)Nc1cc(C(F)(F)F)[nH]n1)c1ccc(F)c(F)c1` [Compound B-1, reference compound] gave an AUC(0-t) in data set [1] (heading: AUC0-24, oral gavage) of 4530 ng·h/mL. The peak level in data set [1] (oral gavage) (Cmax) was 609 ng/mL. In data set [2], `O=C(/N=C(/Nc1cc(F)cc(Cl)c1)Nc1cc(C(F)(F)F)[nH]n1)c1cccc(Cl)c1` [Compound B-2, reference compound] had an AUC(0-t) of 5480 ng·h/mL and a Cmax of 541 ng/mL.
